Reference: article PMC5382325, “Rapid Screening of Potential Phosphodiesterase Inhibitors from the Roots of Ilex pubescens Hook. et Arn. Using a Combination of Ultrafiltration and LC–MS” (Evidence-based Complementary and Alternative Medicine : eCAM, 2017)
“And” between values parts separate entries of the source, which are not always exact repeats. Identical values can stand only once. Like-named read-outs stand apart in the source and are kept apart here.

Legend:
[1] = biological target: Recombinant human PDE5A (Homo sapiens, UniProt O76074); assay: PDE inhibition assay against PDE5A (Cyclic Nucleotide Phosphodiesterase Assay Kit, spectrophotometric); assay type: biochemical; details: in vitro; for IC50: read-out: Inhibitory activity (IC50) PDE5A
[2] = biological target: T1, Phosphodiesterase I (PDEI) from Crotalus adamanteus venom (Crotalus adamanteus, UniProt J3SEZ3); assay type: binding
T1 sequence (J3SEZ3 24-851 limits assumed): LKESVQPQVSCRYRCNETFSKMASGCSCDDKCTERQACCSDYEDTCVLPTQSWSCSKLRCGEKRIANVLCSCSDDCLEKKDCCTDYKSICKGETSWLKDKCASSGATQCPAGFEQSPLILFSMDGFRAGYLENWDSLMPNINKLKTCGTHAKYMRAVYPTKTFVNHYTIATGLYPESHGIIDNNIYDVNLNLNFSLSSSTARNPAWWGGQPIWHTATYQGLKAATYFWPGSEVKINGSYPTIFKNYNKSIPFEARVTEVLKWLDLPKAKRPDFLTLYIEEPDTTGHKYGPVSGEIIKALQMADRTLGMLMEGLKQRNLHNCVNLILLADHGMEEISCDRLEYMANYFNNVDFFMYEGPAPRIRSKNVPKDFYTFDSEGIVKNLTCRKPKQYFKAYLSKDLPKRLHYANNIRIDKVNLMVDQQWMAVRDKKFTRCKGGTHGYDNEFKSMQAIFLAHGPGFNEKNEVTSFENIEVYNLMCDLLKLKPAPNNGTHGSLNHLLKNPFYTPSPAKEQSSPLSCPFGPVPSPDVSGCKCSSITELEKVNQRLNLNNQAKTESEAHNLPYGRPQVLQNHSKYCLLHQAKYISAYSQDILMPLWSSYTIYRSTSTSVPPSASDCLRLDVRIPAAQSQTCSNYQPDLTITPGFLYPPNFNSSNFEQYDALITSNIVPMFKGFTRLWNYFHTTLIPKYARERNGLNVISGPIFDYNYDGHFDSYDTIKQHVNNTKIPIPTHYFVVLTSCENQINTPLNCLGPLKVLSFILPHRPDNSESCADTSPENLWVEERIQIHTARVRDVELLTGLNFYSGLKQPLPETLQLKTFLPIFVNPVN

[3] = biological target: T1, Phosphodiesterase I (PDEI) from Crotalus adamanteus venom; assay type: biochemical; details: read-out: Inhibitory activity (IC50) PDEI

Compound: C[C@H]1CC[C@]2(C(=O)O)CC[C@]3(C)C(=CC[C@@H]4[C@@]5(C)CC[C@H](O[C@@H]6OC[C@@H](O)[C@H](O)[C@H]6O[C@@H]6O[C@H](CO)[C@@H](O)[C@H](O)[C@H]6O)C(C)(C)[C@@H]5CC[C@]43C)[C@@H]2[C@]1(C)O [Ilexsaponin B1 (10), Ilexsaponin B1]
- IC50 [1]: 1800 µM
- Enhancement factor with PDEI [2]: 9.20 ± 0.62% and 15.54 ± 0.21%
- IC50 [3]: 854 µM

Compound: O=C(C=Cc1ccc(O)c(O)c1)OC1CC(O)(C(=O)O)CC(O)C1OC(=O)C=Cc1ccc(O)c(O)c1 (centres unmarked) [Isochlorogenic acid B (3), Isochlorogenic acid B]
- IC50 [1]: 193 µM
- Enhancement factor with PDEI ([2]; n = 3): 19.15 ± 0.77% and 25.90 ± 1.30%

Compound: O=C(C=Cc1ccc(O)c(O)c1)OC1CC(O)(C(=O)O)CC(O)C1OC(=O)C=Cc1ccc(O)c(O)c1 (centres unmarked) [Isochlorogenic acid C (5), Isochlorogenic acid C]
- Activity against PDE5A (in words) [1]: not active
- Binding to PDEI (in words) [2]: quite strong bindings to PDEI
- Enhancement factor with PDEI ([2]; n = 3): 26.73 ± 0.41% and 40.03 ± 0.14%

Compound: C[C@@H]1CC[C@]2(C(=O)O)CC[C@]3(C)C(=CCC4[C@@]5(C)CC[C@H](O)[C@](C)(C(=O)O)C5CC[C@]43C)C2[C@]1(C)O (some centres unmarked) [Ilexgenin A (11), Ilexgenin A]
- IC50 [1]: 177 µM
- Enhancement factor with PDEI ([2]; n = 3): 23.08 ± 0.44% and 30.82 ± 0.31%

Compound: C[C@@H]1CC[C@]2(C(=O)OC3OC(CO)C(O)C(O)C3O)CC[C@]3(C)C(=CCC4[C@@]5(C)CC[C@H](O)[C@](C)(C(=O)O)C5CC[C@]43C)C2[C@]1(C)O (some centres unmarked) [Ilexsaponin A1(9), Ilexsaponin A1]
- IC50 [1]: 22.4 µM
- Binding to PDEI (in words) [2]: low binding efficiency
- Enhancement factor with PDEI ([2]; n = 3): 11.68 ± 0.31% and 18.59 ± 0.65%

Compound: C[C@@H]1O[C@@H](O[C@H]2[C@H](O[C@H]3[C@H](O[C@H]4CC[C@]5(C)[C@H]6CC=C7[C@H]8[C@](C(=O)O)(CC[C@H](C)[C@@]8(C)O)CC[C@@]7(C)[C@]6(C)CC[C@H]5C4(C)C)OC[C@@H](O)[C@@H]3O)O[C@H](CO)[C@@H](O)[C@@H]2O)[C@H](O)[C@H](O)[C@H]1O [Ilexsaponin B2 (8), Ilexsaponin B2]
- IC50 [1]: 48.8 µM
- Binding to PDEI (in words) [2]: strongest PDEI ligand
- Enhancement factor with PDEI [2]: 28.73 ± 0.55% and 41.85 ± 0.86%
- IC50 [3]: 478 µM
